Experiments:
[1] = background statement on known drugs; cited from earlier work
formalin pain model = assay type: in vivo; details: s.c. test drug 30 min or 2 h before the test
From the text: The formalin pain model is a well-established animal model of persistent somatic pain (Dubuisson, D. and Dennis, S. G. Pain 4, 1977, 161-174). It has been described as a model of clinical inflammatory pain (Tjølsen, A. and Hole, K, In: Dickenson, A. H. and Besson, J.-M. R., Editors, 1997, The Pharmacology of Pain, Springer-Verlag, Berlin, 1-20). Formalin injected subcutaneously in a hind paw produces initially a local stimulation of the nociceptors; this is referred to as phase 1. This is followed by inflammatory processes and nerve sensitization (phase 2). The latter phase models the neuropathic pain condition. A number of drugs are active in the model, e.g. morphine and in particular antiepileptic drugs (e.g. gabapentin, lamotrigine, carbamazepine) that have shown beneficial effects in clinical neuropathic states. However, these treatments are accompanied by troublesome side effects. The non-steroid antiinflammatory drugs (NSAIDs) that are used for treatment of inflammatory processes in tissue and have relatively weak effects on neuropathic pain conditions have weak activity in the formalin model.
Fifty microliters of 2.5% formalin were administered subcutaneously (s.c.) into the plantar region of the right hind-paw. […] The total time the animal spent licking, biting or shaking the injected paw was recorded. […]

Structure (SMILES)	activity in the formalin model [1]	inhibition of the pain response in phase 1 (formalin pain model; phase 1 (0-5 min after formalin injection))	inhibition of the pain response in phase 2 (formalin pain model; phase 2 (20-30 min after formalin injection))
NC(=O)N1c2ccccc2C=Cc2ccccc21 [carbamazepine]	active	–	–
NCC1(CC(=O)O)CCCCC1 [gabapentin]	active	–	–
Oc1noc2c1CCNC2 [gaboxadol]	–	potent and dose dependent inhibition of the pain response in phase 1	potently inhibited the pain response in phase 2, in a dose dependent manner
Nc1nnc(-c2cccc(Cl)c2Cl)c(N)n1 [lamotrigine]	active	–	–
CN1CC[C@]23c4c5ccc(O)c4O[C@H]2[C@@H](O)C=C[C@H]3[C@H]1C5 [morphine]	active	–	–

Source: patent US20050288371A1, “Treatment of neuropathic pain, fibromyalgia or rheumatoid arthritis” (H. Lundbeck A/S, priority 2004, published 2005)
